Reference: patent US20230233567A1, “BELVARAFENIB FOR USE IN CANCER TREATMENT” (Hanmi Pharm. Co., Ltd., priority 2020, published 2023)
Where “and” joins values, the source holds several entries; their conditions need not be identical. Identical values can stand only once.

Experiments:
HT-29 (BRAF^V600E) = test: In vitro cell growth inhibition, CRC; assay type: cell-based; details: Homo sapiens
LS513 (KRAS^G12D) = test: In vitro cell growth inhibition, CRC; assay type: cell-based; details: Homo sapiens, LS-513
HCT116 (KRAS^G13D) = test: In vitro cell growth inhibition, CRC; assay type: cell-based; details: Homo sapiens, HCT-116
Lovo (KRAS^G13D) = test: In vitro cell growth inhibition, CRC; assay type: cell-based; details: Homo sapiens
Calu-1 (KRAS^G12C) = test: In vitro cell growth inhibition, NSCLC; assay type: cell-based; details: Homo sapiens
SNU790 (BRAF^V600E) = test: In vitro cell growth inhibition, thyroid cancer; assay type: cell-based; details: SNU7890, BRAF^V600E
ARO (BRAF^V600E) = test: In vitro cell growth inhibition, thyroid cancer; assay type: cell-based
SNU80 (BRAF^G468R) = test: In vitro cell growth inhibition, thyroid cancer; assay type: cell-based
CAL-62 (KRAS^G12R) = test: In vitro cell growth inhibition, thyroid cancer; assay type: cell-based; details: Homo sapiens
[1] = test system: HT-29 CRC cell line harboring BRAF^V600E mutation; test: In vivo antitumor activity, HT-29 xenograft; parameters: species or system mice
Description: In vivo antitumor activity of belvarafenib was investigated in an experiment in a mice model xenografted with a HT-29 CRC cell line harboring BRAF^V600E mutation. Five animals per group were treated with vehicle (control) and belvarafenib at a dose of 30 mg/kg once daily via oral gavage up to day 21.

[2] = test system: Calu-6 NSCLC cell line harboring KRAS^Q61K mutation; test: In vivo antitumor activity, Calu-6 xenograft; parameters: species or system mice; details: for Maximum inhibition rate: 17 days
Description: In vivo antitumor activity of belvarafenib was investigated in an experiment in a mice model xenografted within a Calu-6 NSCLC cell line harboring KRAS^Q61K mutation. Five animals per group were treated with vehicle (control) and belvarafenib at a dose of 3, 10, or 30 mg/kg once daily via oral gavage for 17 days.

[3] = test system: locally advanced and/or metastatic solid tumors carrying mutations in the BRAF, KRAS, and/or NRAS genes; test: Phase I dose-escalation tumor response (RECIST v1.1); assay type: in vivo, human; parameters: key: “uPR” refers to unfolded protein response; “cPR” refers to confirmed partial response; details: BRAF^V600E, NRAS^Q61L melanoma, prior Vemurafenib
Description: (§1) Phase I dose-escalation (NCT02405065) and dose-expansion studies (NCT02405065) were conducted in patients with locally advanced and/or metastatic solid tumors carrying mutations in the BRAF, KRAS, and/or NRAS genes.
(§2) Eligible patients had measurable or evaluable disease per the Response Evaluation Criteria in Solid Tumors version 1.1 (RECIST v1.1). See Eisenhauer E A, Therasse P, Bogaerts J, et al., “New response evaluation criteria in solid tumours: revised RECIST guideline (version 1.1)”, Eur J Cancer 45:228-47, 2009. All patients had progressed on one or more prior lines of therapy or had no available standard therapy at the time of study entry. Additional eligibility criteria included Eastern Cooperative Oncology Group (ECOG) performance status ≤2 and life expectancy ≥12 weeks. Patients with cardiovascular abnormalities as mean QTcF>440 msec were excluded from the dose-expansion phase.
(§3) Tumor response assessments were performed radiographically by the investigator using RECIST version 1.1 at baseline, and at the end of every two treatment cycles until discontinuation. Safety evaluation (Safety Set) included all patients who received one or more doses of belvarafenib and efficacy evaluation (Full Analysis Set) included subjects who received at least one dose of belvarafenib and had at least one post-dose tumor response assessment.

[4] = test system: locally advanced and/or metastatic solid tumors carrying mutations in the BRAF, KRAS, and/or NRAS genes; test: as above; assay type: in vivo, human; parameters: key: “PR” refers to partial response; “SD” refers to stable disease; “PD” refers to progressive disease
Description: as §1, §2, §3

Structure (SMILES): Cc1ccc2c(Nc3cccc(Cl)c3F)nccc2c1NC(=O)c1csc2c(N)ncnc12 [Belvarafenib]
- GI50 (HT-29 (BRAF^V600E)): 47 nM
- GI50 (LS513 (KRAS^G12D)): 62 nM
- GI50 (HCT116 (KRAS^G13D)): 177 nM
- GI50 (Lovo (KRAS^G13D)): 51 nM
- GI50 (Calu-1 (KRAS^G12C)): 749 nM
- GI50 (SNU790 (BRAF^V600E)): 27 nM
- GI50 (ARO (BRAF^V600E)): 719 nM
- GI50 (SNU80 (BRAF^G468R)): 163 nM
- GI50 (CAL-62 (KRAS^G12R)): 479 nM
- Day for maximum inhibition ([1]; 30 mg/kg): 22 and 21
- Maximum weight loss ([1]; 30 mg/kg): 2.4%
- Maximum inhibition rate ([1]; 30 mg/kg once daily oral, 21 days): 59.8%
- Day for maximum inhibition ([2]; 3 mg/kg): 18
- Maximum weight loss ([2]; 3 mg/kg): 2.5%
- Maximum inhibition rate ([2]; 3 mg/kg q.d. oral): 53.5%
- Day for maximum inhibition ([2]; 10 mg/kg): 15
- Maximum weight loss ([2]; 10 mg/kg): 3.0%
- Maximum inhibition rate ([2]; 10 mg/kg q.d. oral): 79.3%
- Day for maximum inhibition ([2]; 30 mg/kg): 12
- Maximum weight loss ([2]; 30 mg/kg): 1.1%
- Maximum inhibition rate ([2]; 30 mg/kg q.d. oral): 86.3%
- Belvarafenib BOR [3]: uPR
- Belvarafenib BOR ([4]; NRAS G12C melanoma, prior Nivolumab): SD
- Belvarafenib BOR ([4]; NRAS G12D melanoma, prior Ipilimumab): PR
- Belvarafenib BOR ([4]; NRAS Q61K melanoma, prior Nivolumab): PR
- Belvarafenib BOR ([4]; NRAS Q61R melanoma, prior Ipilimumab): PR
- Belvarafenib BOR ([4]; NRAS Q61R melanoma, prior Pembrolizumab): PD
